The nature of series [1]: RNA encapsulation efficiency of LNPs by Ribogreen assay. Type of series: physicochemical. Conditions: LNP of 47.5% Ionizable Lipid:40% cholesterol:2.5% PEG-2000 DMG:10% DPSC, N/P ratio 4-8. On the procedure:
(§1) LNPs were prepared with 47.5% Ionizable Lipid (e.g., a compound provided herein):40% cholesterol:2.5% PEG-2000 DMG:10% DPSC and an N/P ratio range of 4-8. LNPs were formed by microfluidic mixing of the lipid and NA solutions using a Precision Nanosystems NanoAssemblr Spark or Benchtop series Instruments, according to the manufacturer's protocol. A ratio of aqueous to organic solvent of approximately 2:1 or 3:1 was maintained during mixing using differential flow rates. After mixing, LNPs were collected, diluted in phosphate buffer saline (PBS) or Tris-buffered saline (TBS) (approximately 1:1 v/v). Further buffer exchange was conducted using dialysis in PBS or TBS at 4° C. for 4 to 24 hours against a 20 kDa filter. After this initial dialysis, each individual LNP preparation was characterized via dynamic light scattering (DLS) to measure the size (e.g., diameter) and polydispersity. LNPs falling within specific diameter and polydispersity ranges were pooled, and further dialyzed against PBS or TBS at 4° C. for 1 to 4 hours against a 100 kDa dialysis cassette. After the second dialysis, LNPs were sterile filtered using 0.22 μm filter and stored at 4° C. for further use.
RNA concentration and encapsulation efficiency were determined by Ribogreen assay (BioTek Synergy LX plate reader).

The nature of series [2]: LNP hydrodynamic diameter and polydispersity index by dynamic light scattering (DLS). Type of series: physicochemical. The conditions noted are these: LNP of 47.5% Ionizable Lipid:40% cholesterol:2.5% PEG-2000 DMG:10% DPSC, N/P ratio 4-8. As for the experimental part: as §1
LNP hydrodynamic diameter and polydispersity index (PDI) were measured using high throughput dynamic light scattering (DLS) (Stunner, Unchained Labs). LNPs were diluted 1×TBS or PBS to an appropriate concentration and analyzed.

SMILES strings stand for the structures.

Take `CCCCC/C=C\C/C=C\CCCCCCCC(=O)OCCC(CCOC(=O)CCC(OCCCCCCCC)OCCCCCCCC)OC(=O)OCC1CCCN(CC)C1` (stereo not drawn) [Example 7-11, 5-((4,4-bis(octyloxy)butanoyl)oxy)-3-((((1-ethylpiperidin-3-yl)methoxy)carbonyl)oxy)pentyl (9Z,12Z)-octadeca-9,12-dienoate]: the “Mean Encapsulation Efficiency (%)” value in series [1] is 86.3%. Also, in series [2], the “Mean Diameter (nm)” value is reported as 76.5 nm and the “Mean PDI” value amounted to 0.13.
For `CCCCC/C=C\C/C=C\CCCCCCCC(=O)OCCC(CCOC(=O)CCC(OCCCCCCCC)OCCCCCCCC)OC(=O)OCCCN(C)C` (stereo not drawn) [Example 7-14, 5-((4,4-bis(octyloxy)butanoyl)oxy)-3-(((3-(dimethylamino)propoxy)carbonyl)oxy)pentyl (9Z,12Z)-octadeca-9,12-dienoate], the “Mean Encapsulation Efficiency (%)” value in series [1] is given as 87.2%. In addition, in series [2], the “Mean Diameter (nm)” value is given as 84.3 nm and the “Mean PDI” value is on record as 0.18.
For `CC/C=C\CCCCOC(CCC(=O)OCCC(CCOC(=O)CCC(OCCCC/C=C\CC)OCCCC/C=C\CC)OC(=O)OCCCN(CC)CC)OCCCC/C=C\CC` [Example 7-7, 3-(((3-(diethylamino)propoxy)carbonyl)oxy)pentane-1,5-diyl bis(4,4-bis(((Z)-oct-5-en-1-yl)oxy)butanoate)], in that order: 91.3%, 99.7 nm and 0.17.
Taken in the same sequence, the figures for `CC/C=C\CCCCOC(CCC(=O)OCCCCC(CCCCOC(=O)CCC(OCCCC/C=C\CC)OCCCC/C=C\CC)OC(=O)OCC1CCCN(CC)C1)OCCCC/C=C\CC` (stereo not drawn) [Example 7-34, 5-((((1-ethylpiperidin-3-yl)methoxy)carbonyl)oxy)nonane-1,9-diyl bis(4,4-bis(((Z)-oct-5-en-1-yl)oxy)butanoate)] were 85.1%, 94.4 nm and 0.12.
Taken in the same sequence, the figures for `CCCCC/C=C\C/C=C\CCCCCCCC(=O)OCCC(CCOC(=O)CCC(OCCCCCCCC)OCCCCCCCC)OC(=O)OCCCN(CC)CC` (stereo not drawn) [Example 7-12, 5-((4,4-bis(octyloxy)butanoyl)oxy)-3-(((3-(diethylamino)propoxy)carbonyl)oxy)pentyl (9Z,12Z)-octadeca-9,12-dienoate] were 86.5%, 85.0 nm and 0.16.
As for `CCCCC/C=C\C/C=C\CCCCCCCC(=O)OCCC(CCOC(=O)CCC(OCCCCCCCC)OCCCCCCCC)OC(=O)CCCN1CCCC1` (stereo not drawn) [Example 7-15, 5-((4,4-bis(octyloxy)butanoyl)oxy)-3-((4-(pyrrolidin-1-yl)butanoyl)oxy)pentyl (9Z,12Z)-octadeca-9,12-dienoate], the “Mean Encapsulation Efficiency (%)” value in series [1] stood at 87.0%. For the same compound, in series [2], the “Mean Diameter (nm)” value turned out to be 80.8 nm and the “Mean PDI” value worked out at 0.16.
Taken in the same sequence, the figures for `CCCCC/C=C\C/C=C\CCCCCCCC(=O)OCCC(CCOC(=O)CCC(OCCCCCCCC)OCCCCCCCC)OC(=O)OCCCN(C)CC` (stereo not drawn) [Example 7-13, 5-((4,4-bis(octyloxy)butanoyl)oxy)-3-(((3-(ethyl(methyl)amino)propoxy)carbonyl)oxy)pentyl (9Z,12Z)-octadeca-9,12-dienoate] were 86.1%, 86.0 nm and 0.15.
Taken in the same sequence, the figures for `CC/C=C\CCCCOC(CCC(=O)OCCC(CCOC(=O)CCCCCCC/C=C\C/C=C\CCCCC)OC(=O)OCCCN(C)C)OCCCC/C=C\CC` (stereo not drawn) [Example 7-4, 5-((4,4-bis(((Z)-oct-5-en-1-yl)oxy)butanoyl)oxy)-3-(((3-(dimethylamino)propoxy)carbonyl)oxy)pentyl (9Z,12Z)-octadeca-9,12-dienoate] were 86.3%, 88.8 nm and 0.13.
With `CCCCCCCCOC(CCC(=O)OCCC(CCOC(=O)CCC(OCCCCCCCC)OCCCCCCCC)OC(=O)OCC1CCCN(CC)C1)OCCCCCCCC` (stereo not drawn) [Example 7-16, 3-((((1-ethylpiperidin-3-yl)methoxy)carbonyl)oxy)pentane-1,5-diyl bis(4,4-bis(octyloxy)butanoate)], the “Mean Encapsulation Efficiency (%)” value in series [1] is on record as 72.6%. In addition, in series [2], the “Mean Diameter (nm)” value turned out to be 80.0 nm and the “Mean PDI” value was found to be 0.16.
For `CCCCCCCCOC(CCC(=O)OCCC(CCOC(=O)CCC(OCCCCCCCC)OCCCCCCCC)OC(=O)OCCCN(C)CC)OCCCCCCCC` [Example 7-18, 3-(((3-(ethyl(methyl)amino)propoxy)carbonyl)oxy)pentane-1,5-diyl bis(4,4-bis(octyloxy)butanoate)], in that order: 90.0%, 76.7 nm and 0.16.
For `CC/C=C\CCCCOC(CCC(=O)OCCC(CCOC(=O)CCCCCCC/C=C\C/C=C\CCCCC)OC(=O)OCCCN(CC)CC)OCCCC/C=C\CC` (stereo not drawn) [Example 7-2, 5-((4,4-bis(((Z)-oct-5-en-1-yl)oxy)butanoyl)oxy)-3-(((3-(diethylamino)propoxy)carbonyl)oxy)pentyl (9Z,12Z)-octadeca-9,12-dienoate], in that order: 87.2%, 96.4 nm and 0.12.
As for `CC/C=C\CCCCOC(CCC(=O)OCCC(CCOC(=O)CCC(OCCCC/C=C\CC)OCCCC/C=C\CC)OC(=O)OCCCN(C)C)OCCCC/C=C\CC` [Example 7-9, 3-(((3-(dimethylamino)propoxy)carbonyl)oxy)pentane-1,5-diyl bis(4,4-bis(((Z)-oct-5-en-1-yl)oxy)butanoate)], the “Mean Encapsulation Efficiency (%)” value in series [1] is recorded as 89.0%. Also, in series [2], the “Mean Diameter (nm)” value is listed as 92.9 nm and the “Mean PDI” value is 0.13.
For `CC/C=C\CCCCOC(CCC(=O)OCCC(CCOC(=O)CCC(OCCCC/C=C\CC)OCCCC/C=C\CC)OC(=O)OCCCN(C)CC)OCCCC/C=C\CC` [Example 7-8, 3-(((3-(ethyl(methyl)amino)propoxy)carbonyl)oxy)pentane-1,5-diyl bis(4,4-bis(((Z)-oct-5-en-1-yl)oxy)butanoate)], in that order: 89.9%, 110.4 nm and 0.09.
Taken in the same sequence, the figures for `CC/C=C\CCCCOC(CCC(=O)OCCC(CCOC(=O)CCCCCCC/C=C\C/C=C\CCCCC)OC(=O)OCCCN(C)CC)OCCCC/C=C\CC` (stereo not drawn) [Example 7-3, 5-((4,4-bis(((Z)-oct-5-en-1-yl)oxy)butanoyl)oxy)-3-(((3-(ethyl(methyl)amino)propoxy)carbonyl)oxy)pentyl (9Z,12Z)-octadeca-9,12-dienoate] were 86.7%, 91.0 nm and 0.13.

The values above are taken from patent publication US20240335385A1, “IONIZABLE AMINE LIPIDS AND LIPID NANOPARTICLES” (Beam Therapeutics Inc., priority 2021, published 2024).
